Laboratory results taken from ChEMBL document CHEMBL1201862, “PubChem BioAssay data set” (2004).
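Results reflect a 48-hour exposure of cells in 96-well plates to compound at five concentrations. Abbreviation: GI50, concentration required for 50% inhibition of growth.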 The source made the active and inactive calls. Cut-off read from the data, not from the text of the source: active = GI50 up to about 1.1 µM and inactive = higher.

What was measured:
Test in all cases: growth of human tumour cells (NCI), 48 h
DLD-1 = system: DLD-1
DMS-273 = system: DMS-273
HOP-18 = system: HOP-18
KM-20L2 = system: KM-20L2
LXFL 529 = system: LXFL 529
M19-MEL = system: M19-MEL
SNB-78 = system: SNB-78
XF498 = system: XF498
RXF 631 = system: RXF 631

Row | Structure (SMILES) | GI50 (DLD-1) | GI50 (DMS-273) | GI50 (HOP-18) | GI50 (KM-20L2) | GI50 (LXFL 529) | GI50 (M19-MEL) | GI50 (SNB-78) | GI50 (XF498) | GI50 (RXF 631)
1 | CC(=O)NC1=C(C)C(=O)c2c(nc3n2CCC3O)C1=O (stereo not given) | 39.5 µM (inactive) | 44.8 µM (inactive) | > 100 µM (inactive) | > 72.1 µM (inactive) | 19.6 µM (inactive) | 25.6 µM (inactive) | 31.3 µM (inactive) | 18.2 µM (inactive) | 
2 | Clc1ccc(C[P+]2(c3ccccc3)CCCCC2)cc1.[O-][Cl+3]([O-])([O-])[O-] | > 100 µM (inactive) | 57.5 µM (inactive) | > 100 µM (inactive) | 54.6 µM (inactive) | 37.1 µM (inactive) | 28.7 µM (inactive) | 52.4 µM (inactive) | 44 µM (inactive) | 
3 | C/C(=N\NC(=S)N(C)C)c1ncc[nH]1 | 2.9 µM (inactive) |  | 5.37 µM (inactive) | 3.57 µM (inactive) | 2.98 µM (inactive) | 5.6 µM (inactive) |  | 4.73 µM (inactive) | 
4 | O=[N+]([O-])c1cc(C2SCc3nc4ccccc4n32)ccc1Cl (stereo not given) | 26.1 µM (inactive) | 24.2 µM (inactive) | 76.7 µM (inactive) |  | 23.1 µM (inactive) | 22.2 µM (inactive) | 23.2 µM (inactive) |  | 
5 | CC1=C(C(=O)Nc2cc(=O)n(C)c(=O)n2C)C(c2ccc([N+](=O)[O-])cc2)C(C(=O)Nc2cc(=O)n(C)c(=O)n2C)=C(C)N1 | 90.8 µM (inactive) |  | 51.5 µM (inactive) | > 100 µM (inactive) | 51.8 µM (inactive) | > 100 µM (inactive) | > 100 µM (inactive) | 8.97 µM (inactive) | > 100 µM (inactive)
6 | CCC1CC2C(=O)N(c3ccccc3)C(=O)C2c2[nH]c3ccccc3c21 (stereo not given) | 24 µM (inactive) | > 10 µM (inactive) | 14.3 µM (inactive) |  | 20.2 µM (inactive) | 20.4 µM (inactive) | 26.6 µM (inactive) | 16.7 µM (inactive) | 13.3 µM (inactive)
7 | CCc1ccc(Cc2ccc(CC)c(NC(=O)C(=O)C3NC(=S)NC3=O)c2CC)c(CC)c1NC(=O)C(=O)C1NC(=S)NC1=O (stereo not given) | > 100 µM (inactive) | > 100 µM (inactive) |  | > 100 µM (inactive) | > 100 µM (inactive) | > 100 µM (inactive) | > 100 µM (inactive) |  | > 100 µM (inactive)
8 | O=c1[nH]c(=O)n(C2CC(O)C(CO)O2)cc1C#Cc1cc(C(F)(F)F)cc(C(F)(F)F)c1 (stereo not given) | > 29.4 µM (inactive) |  |  | > 45.4 µM (inactive) | > 30.1 µM (inactive) | > 31.3 µM (inactive) | 50.7 µM (inactive) | 21 µM (inactive) | 21.3 µM (inactive)
9 | Cc1cc(S(=O)(=O)O)c(NC(=O)C(=O)C2C=CCS2(=O)=O)cc1Cl (stereo not given) | > 100 µM (inactive) | > 100 µM (inactive) | > 100 µM (inactive) | > 100 µM (inactive) | > 100 µM (inactive) | > 100 µM (inactive) | > 100 µM (inactive) | > 100 µM (inactive) | 
10 | COc1cc2c(c(OC(C)=O)c1OC(C)=O)-c1ccc(SC)c(=O)cc1C(NC(C)=O)CC2 (stereo not given) | 3.91 µM (inactive) | 1.41 µM (inactive) | > 91 µM (inactive) | 1.85 µM (inactive) | 0.955 µM (active) | 1.39 µM (inactive) | 0.48 µM (active) | 2.75 µM (inactive) | 
11 | CCN(CC)C(=O)c1c(N2CCOCC2)cc(N(CC)CC)oc1=O | > 100 µM (inactive) | > 100 µM (inactive) | > 100 µM (inactive) | > 100 µM (inactive) | > 100 µM (inactive) | > 100 µM (inactive) | > 100 µM (inactive) | > 100 µM (inactive) | 
12 | COc1ccc2c(c1)[C@@H](NC(C)=O)CCc1cc(OC)c(OC)c(OC)c1-2 | < 0.0138 µM (active) | < 0.01 µM (active) | > 100 µM (inactive) | 0.0117 µM (active) | < 0.0137 µM (active) | < 0.0154 µM (active) | 0.0107 µM (active) | 0.0137 µM (active) | 
13 | CC(=O)c1cccc(NC(=O)C(=O)C(C(=O)NN)c2ccccc2)c1 (stereo not given) | > 100 µM (inactive) | > 100 µM (inactive) | 16.5 µM (inactive) | > 100 µM (inactive) | > 100 µM (inactive) | > 100 µM (inactive) |  | > 100 µM (inactive) | > 100 µM (inactive)
14 | CCCc1c[nH]c(-c2ccc(-c3cc(CCC)c(C=O)[nH]3)s2)c1 | 15 µM (inactive) | 14.9 µM (inactive) | 27.7 µM (inactive) |  | 18.8 µM (inactive) | 7.93 µM (inactive) | 20.1 µM (inactive) | 18.7 µM (inactive) | 
15 | Cc1cc(NS(=O)(=O)c2ccc(NC(=O)c3cccc4c(Nc5ccc(S(=O)(=O)N=C(N)N)cc5)c5ccccc5nc34)cc2)no1 | > 100 µM (inactive) | > 100 µM (inactive) |  | > 100 µM (inactive) | > 100 µM (inactive) |  | > 100 µM (inactive) |  | > 100 µM (inactive)
16 | COC(=O)NN=C1C(C)(C)C(=NNC(=O)OC)C1(C)C | > 61.9 µM (inactive) | > 100 µM (inactive) | > 100 µM (inactive) | > 100 µM (inactive) | > 100 µM (inactive) | > 40.6 µM (inactive) | > 100 µM (inactive) | > 96.6 µM (inactive) | > 100 µM (inactive)
17 | CC1(C)CCC[C@@]2(C)C1C[C@H](O)[C@@]1(C)O[C@@](C)([C@H](O)CO)CCC21 (stereo not given in full) |  | 44.2 µM (inactive) | 26.1 µM (inactive) | 40.5 µM (inactive) | 43.2 µM (inactive) | 40.8 µM (inactive) | 40.3 µM (inactive) | 38.7 µM (inactive) | 86.9 µM (inactive)
18 | Cc1ccc(C2=[N+]([O-])c3ccccc3C2=O)cc1 | 21.9 µM (inactive) |  | 27.4 µM (inactive) | 40.4 µM (inactive) | 8.49 µM (inactive) | > 36.1 µM (inactive) | 31.7 µM (inactive) | 12.9 µM (inactive) | 22.2 µM (inactive)
19 | CS(=O)(=O)OCCCCOS(C)(=O)=O [BUSULFAN] | > 236 µM (inactive) | 191 µM (inactive) | > 200 µM (inactive) | > 234 µM (inactive) | > 250 µM (inactive) | 226 µM (inactive) | 212 µM (inactive) |  | 
20 | CCn1cc(C(=O)O)c(=O)c2cc(F)c(N3CCNCC3)nc21 [ENOXACIN] | > 100 µM (inactive) | > 100 µM (inactive) | > 100 µM (inactive) |  | > 100 µM (inactive) | 87.9 µM (inactive) | > 100 µM (inactive) |  | > 100 µM (inactive)
